Molecules are shown by their SMILES.

Assay [1] concerns the target T1, EbPPK2 (polyphosphate kinase 2 class III from an Erysipelotrichaceae bacterium) (Erysipelotrichaceae bacterium, UniProt P0DY74).
T1 construct: gene DHS57_05705; purified; 146 kDa homotetramer
T1 sequence (P0DY74 1-298): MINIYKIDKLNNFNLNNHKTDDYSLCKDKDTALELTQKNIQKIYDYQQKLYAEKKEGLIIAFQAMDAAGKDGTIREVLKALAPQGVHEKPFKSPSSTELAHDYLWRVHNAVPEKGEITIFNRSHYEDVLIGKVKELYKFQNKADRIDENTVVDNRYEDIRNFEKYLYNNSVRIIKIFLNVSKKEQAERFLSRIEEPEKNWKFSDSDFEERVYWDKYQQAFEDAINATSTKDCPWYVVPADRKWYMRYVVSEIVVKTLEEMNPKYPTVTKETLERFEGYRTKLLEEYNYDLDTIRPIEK
In words: HPLC conversion to NDP/NTP. Type of assay: biochemical. To be noted: 1 mM NMP, 1 μM enzyme, 6.1 g/L sodium polyphosphate, 20 mM MgCl2, 20 mM Tris pH 8, 30 °C, 10 min.

Assay [2] addresses T1, EbPPK2 (polyphosphate kinase 2 class III from an Erysipelotrichaceae bacterium). The experiment in a line: X-ray crystal structure. The note with it: 1.7 Å; ternary complex with polyP and Mg2+; nucleotide-binding pocket of the active site.

Consider `Nc1ncnc2c1ncn2[C@@H]1O[C@H](COP(=O)(O)O)[C@@H](O)[C@H]1O` [1a, AMP], for which the “HPLC conversion to NDP/NTP” value in assay [1] is on record as “Starting from AMP (1a), the reaction approached a distribution of AMP”.

Regarding `Nc1nc2c(ncn2[C@@H]2O[C@H](COP(=O)(O)O)[C@@H](O)[C@H]2O)c(=O)[nH]1` [5a, GMP], in assay [1], the “HPLC conversion to NDP/NTP” value is “GMP and GMP-like analogues were phosphorylated more slowly by EbPPK”.

Regarding `Nc1ncnc2c1ncn2[C@@H]1O[C@H](COP(=O)(O)OP(=O)(O)CP(=O)(O)O)[C@@H](O)[C@H]1O` [adenosine-5′-[(β,γ)-methyleno]triphosphate], the X-ray crystal structure result in assay [2] is “EbPPK2 in complex with the non-hydrolysable ATP analogue adenosine-5′-[(β,γ)-methyleno]triphosphate (ACP) and polyP (PDB: 9IGQ)”.
